We go through 2 compounds from PMC7595621, “Quorum sensing N-Acyl homoserine lactones are a new class of anti-schistosomal” (PLoS Neglected Tropical Diseases, 2020).

In brackets after ≈: the same amount, converted by molar mass.

The test system of experiment [1] is adult S. mansoni worm pairs (egg production). As to the kind of experiment: In vitro egg production of adult S. mansoni worm pairs. In kind it is cell-based, Schistosoma mansoni. Conditions: 72 hr, compared to DMSO. The protocol:
Adult S. mansoni parasites were recovered by hepatic portal vein perfusion from TO outbred mice (HsdOla:TO, Tuck-Ordinary, Envigo, UK) that were percutaneously infected seven weeks earlier with 180 cercariae. Three adult worm pairs per well, in duplicate, were transferred into 48 well plates (Fisher Scientific, Loughborough, UK) and cultured at 37 °C in an atmosphere containing 5% CO2 in DMEM (Gibco, Paisley, UK) containing 10% v/v HEPES, 10% v/v Foetal Bovine Serum (FBS), 0.7% v/v 200 mM L-Glutamine and 1X v/v penicillin-streptomycin. Worms were dosed with test compounds at 20 μM, 10 μM, 5 μM, 2.5 μM, 1.25 μM and 0.625 μM (in 0.2% DMSO) for 72 hr. Adult worms were scored manually at 72 hr using the WHO-TDR metric scoring system as described previously. Dose response curves and EC50 values were obtained by non-linear regression, after log transformation of concentrations and data normalization using GraphPad Prism 7.02. At 72 hr, the medium from each well was also collected, centrifuged at 350 x g for 2 min. Afterwards, the supernatant was removed, and the remaining egg pellet re-suspended in 10% v/v formalin. Eggs that were oval and contained a fully formed lateral spine were subsequently counted.
Fig 3 Adult schistosome motility and egg production are differentially affected by the nine N-acyl homoserine lactones. […] Parasite motility was evaluated for each sex and scored using the WHO-TDR scoring system (0 = Dead parasite, 4 = Normal/Healthy movement). B) Culture media were collected from some adult co-cultures at 72 hrs and eggs present in the media were counted. p values are indicated as follows: * <0.05, ** <0.01, *** <0.001.
As morbidity associated with schistosomiasis is caused by egg-induced granuloma formation in tissues and the subsequent development of fibrotic lesions around these granulomas, compound-mediated modulation of in vitro egg production (as a surrogate for the in vivo pathology initiator) was next assessed (Fig 3B). […] In comparison to the negative control DMSO, in which egg counts ranged from 300–594 (Average—408), all N-Acyl homoserine lactones affected fecundity.

The subject of experiment [2] is juvenile S. mansoni worms. As to the kind of experiment: Screening of juvenile S. mansoni blood flukes (3-week worms), motility scoring. Format: cell-based, Schistosoma mansoni. Conditions: for Selectivity index, juvenile worm: HepG2 CC50 / juvenile worm EC50; for EC50: Schistosoma mansoni, 3-week worms, motility scores, read-out: JUVENILE WORM EC50. The protocol: Juvenile S. mansoni parasites were recovered via hepatic portal vein perfusion from TO outbred mice (HsdOla:TO, Tuck-Ordinary, Envigo, UK) that were infected percutaneously three weeks earlier with 4000 cercariae. Preparation and centrifugation of juvenile worms have been described previously. […] After motility quantification, 2 μg/mL of PI was added to each well and the plate returned to 37°C, 5% CO2 for 15 minutes. Each well was subsequently imaged on the Roboworm platform using brightfield and fluorescent microscopy (excitation wavelength = 580 nm; emission wavelength = 604 nm). The number of PI positive vs PI negative juvenile worms were cross-checked with the motility scores obtained by our scoring matrix, and the data reported as percentage of PI positive across all parasites within the well. EC50 values were calculated from the motility scores obtained from the dose response titration (as detailed above) and dose response curves were obtained by non-linear regression, after log transformation of concentrations and data normalization using GraphPad Prism 7.02.
Fig 4 Three week juvenile worms are immobilised by N-Acyl homoserine lactones. Three-week old juvenile S. mansoni worms (n = 13–33 per well) were co-cultured with compounds (1) and (3) at concentrations spanning 15 μM—0.23 μM for 72 hrs at 37°C in a humidified atmosphere containing 5% CO2. Parasite motility was scored between 0–4 (0 = no movement/dead, 4 = full movement/healthy). […] A) Effect of compound (1) on juvenile worm motility. (B) Effect of compound (3) on juvenile worm motility. p values are indicated as follows: * <0.05, ** <0.01, *** <0.001.

Experiment [3] concerns E. coli ATCC 25922. As to the kind of experiment: Broth microdilution MIC and IC50 determination, E. coli. To be noted: Escherichia coli; for MIC: ATCC25922, 24 h, 24 hr. In kind it is cell-based. The protocol:
S. aureus ATCC 29213 and E. coli ATCC 25922 were cultured in Luria-Bertani (LB) medium at 37°C with aeration at 200 rpm for 24 hr, with all procedures performed in a biosafety level 2 (BSL2) cabinet. Stationary phase cultures were then used for minimum inhibitory concentration (MIC) determination using the broth microdilution method, in fresh LB medium, in a 96-well plate. All compounds were tested in triplicate using an initial bacterial concentration of 5.0 × 10^5 colony forming units (CFU)/mL at a final concentration of 125 mg/L (5% and 2.5% v/v methanol). Compounds with no visible growth at 125 mg/L were further evaluated with progressing dilutions. […] Dilutions were repeated in three independent experiments where the optical density (OD600) was measured in a Hidex plate spectrophotometer and absorbance data used for the calculation of an IC50 value. The IC50 value was obtained from a dose response titration (125–0.09 mg/L). Dose response curves were obtained by non-linear regression, after log transformation of concentrations and data normalization using GraphPad Prism 7.02.
As Compound 1 was structurally similar to N-acyl homoserine lactones, a compound class involved in bacterial quorum sensing, we decided to assess its antimicrobial activity and determine if enantiomer separation or lactone ring substitution would change this activity.

Broadly, the EC50 is the concentration giving half of the maximal effect. One may read the MIC as the lowest concentration that inhibits growth of the organism. Lower therefore signals a more susceptible organism. Broadly, the IC50 is the concentration that gives 50% inhibition.

`O=C(CBr)NC1CCOC1=O` (centres unmarked) [Compound 1, 2-bromo-N-(2-oxotetrahydrofuran-3-yl)acetamide]: the “egg laying significantly reduced down to concentration” value in experiment [1] came to 10 µM. Also, the “significant effect on juvenile worm motility down to” value in experiment [2] (72 hr) was 7.5 µM. The “Selectivity index, juvenile worm” value in experiment [2] came to 10.1. In addition, the EC50 in experiment [2] (72 hr) stood at 4.3 µM. Moreover, the results for the MIC in experiment [3] (no visible growth) and in experiment [3] (value in square brackets) were 125 µg/mL and 563 µM, respectively.

`O=C(CBr)NC1CCSC1=O` (centres unmarked) [Compound 3, 2-bromo-N-(2-oxotetrahydrothiophen-3-yl)acetamide]: in experiment [1], the “effect on egg production (fecundity)” value was “still affected at 1.25 μM, this was not statistically significant” and the “egg laying significantly reduced down to concentration” value was 2.5 µM. Moreover, in experiment [2] (72 hr), the “complete immobility of juvenile worms observed down to” value is 0.94 µM and the EC50 was 0.5 µM. In experiment [2], the “Selectivity index, juvenile worm” value is 37.4. The compound further came in with an MIC in experiment [3] (no visible growth) of 62.5 µg/mL. This compound also had an MIC in experiment [3] (value in square brackets) of 262 µM. Moreover, in experiment [3] (ATCC25922, Table 3, OD600, three independent experiments, 95% confidence interval in parentheses), the IC50 amounted to 52.7 µg/mL (≈ 221 µM).
